Assay [1] concerns the target T1, BMX (Homo sapiens, UniProt P51813).
T1 construct: purchased Reaction Biology Corporation
T1 sequence (P51813 1-675): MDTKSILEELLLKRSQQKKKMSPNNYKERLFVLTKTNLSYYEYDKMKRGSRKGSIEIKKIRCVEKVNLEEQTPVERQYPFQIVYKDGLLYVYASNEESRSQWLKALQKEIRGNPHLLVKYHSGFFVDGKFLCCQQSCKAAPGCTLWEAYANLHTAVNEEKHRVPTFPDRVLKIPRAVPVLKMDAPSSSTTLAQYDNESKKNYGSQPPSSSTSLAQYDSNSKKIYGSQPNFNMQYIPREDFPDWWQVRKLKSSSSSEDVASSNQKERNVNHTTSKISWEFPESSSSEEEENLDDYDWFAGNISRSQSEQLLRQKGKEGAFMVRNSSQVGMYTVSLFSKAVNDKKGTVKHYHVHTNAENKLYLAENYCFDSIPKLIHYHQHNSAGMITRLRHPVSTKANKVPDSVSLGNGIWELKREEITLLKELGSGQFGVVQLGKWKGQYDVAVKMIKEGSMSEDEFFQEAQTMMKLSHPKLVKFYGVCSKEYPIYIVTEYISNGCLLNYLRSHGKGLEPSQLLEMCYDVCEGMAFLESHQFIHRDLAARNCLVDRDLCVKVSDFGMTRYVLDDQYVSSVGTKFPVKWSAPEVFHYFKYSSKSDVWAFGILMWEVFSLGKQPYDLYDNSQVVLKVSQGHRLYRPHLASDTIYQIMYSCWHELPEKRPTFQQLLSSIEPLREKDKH
As to the kind of experiment: Radiometric kinase assay (Reaction Biology HotSpot). The format is biochemical. As to conditions: [ATP] = 10 μM; for IC50: radiometric HotSpot, five-dose singlicate; for remaining activity at 0.2 µM: 200 nM compound, duplicate mean, read-out: Residual Activity @ 200 nM, BMX. The method, then: (§1) If not mentioned differently, in vitro profiling of compounds was performed at Reaction Biology Corporation using the HotSpot™ assay platform.

For assay [2], the target named is T2, kinase domain of BMX (Homo sapiens, UniProt P51813).
T2 construct: The kinase domains of JAK3 and BMX at 2 μM
Kind of assay: Thermal shift (ΔTm) assay. The format is binding. As to conditions: 2 μM kinase domain, 10 μM inhibitor; mean ± SD of at least three measurements. On the procedure:
(§2) The kinase domains of JAK3 and BMX at 2 μM were mixed with the inhibitors at 10 μM, and subsequently SyPRO orange dye (Invitrogen Carlsbad, CA, USA) was added. The thermal shift assay and data evaluation were performed as described previously using a Real-Time PCR Mx3005p machine (Stratagene, La Jolla, CA, USA).

Assay [3] concerns the target T3, kinase domain of JAK3 (Homo sapiens, UniProt P52333).
T3 construct: The kinase domains of JAK3 and BMX at 2 μM; made in house
Kind of assay: Thermal shift (ΔTm) assay. The format is binding. As to conditions: 2 μM kinase domain, 10 μM inhibitor; mean ± SD of at least three measurements. On the procedure:
as §2

The target in assay [4] is T2, kinase domain of BMX. Kind of assay: Mass spectrometric investigation of covalent binding to BMX (ESI-TOF). As to conditions: 4 °C; for BMX covalent adduct fraction, 30 min / native (unmodified) BMX fraction, 30 min / BMX covalent adduct fraction, 60 min / native (unmodified) BMX fraction, 60 min / BMX covalent adduct fraction, 120 min / native (unmodified) BMX fraction, 120 min / BMX covalent adduct fraction, 240 min / native (unmodified) BMX fraction, 240 min: 1.5-fold molar excess of inhibitor; for covalent labeling of BMX (in words): complete labeling refers to 30 min. On the procedure: The kinase domain of BMX was diluted to 0.05 mM with buffer containing 20 mM Tris pH 8.0, 200 mM NaCl, 0.5 mM TCEP (pH 7.0) and was subsequently mixed with 0.075 mM inhibitors (ratio of protein to inhibitor of 1:1.5). The mixture was incubated at 4°C. The samples were taken at different time points, the reaction stopped by diluting the sample with a 200-fold excess of 1% formic acid. The denatured protein and the adducts were assessed using electrospray time-of-flight (ESI-TOF) mass spectrometry.

The target in assay [5] is T4, BLK (Homo sapiens, UniProt P51451).
T4 construct: purchased Reaction Biology Corporation
T4 sequence (P51451 whole entry): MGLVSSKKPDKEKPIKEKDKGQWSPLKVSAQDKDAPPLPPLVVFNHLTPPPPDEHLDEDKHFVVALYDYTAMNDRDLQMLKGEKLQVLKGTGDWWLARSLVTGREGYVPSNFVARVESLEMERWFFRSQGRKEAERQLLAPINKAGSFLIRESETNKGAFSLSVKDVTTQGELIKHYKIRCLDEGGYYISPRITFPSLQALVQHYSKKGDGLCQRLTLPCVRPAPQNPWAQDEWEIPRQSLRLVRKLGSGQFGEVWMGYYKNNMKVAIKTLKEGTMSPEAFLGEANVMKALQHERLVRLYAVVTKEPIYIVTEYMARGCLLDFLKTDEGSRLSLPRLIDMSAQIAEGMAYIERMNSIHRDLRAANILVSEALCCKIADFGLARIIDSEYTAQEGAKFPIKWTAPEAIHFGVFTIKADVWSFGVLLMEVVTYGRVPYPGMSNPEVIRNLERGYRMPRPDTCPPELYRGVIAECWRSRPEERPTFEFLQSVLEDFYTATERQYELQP
Kind of assay: Radiometric kinase assay (Reaction Biology HotSpot). As to conditions: [ATP] = 10 μM; for remaining activity at 0.2 µM: 200 nM compound, duplicate mean, read-out: Residual Activity @ 200 nM, BLK. The format is biochemical. On the procedure:
as §1

Assay [6] addresses T5, BTK (Homo sapiens, UniProt Q06187).
T5 construct: purchased Reaction Biology Corporation
Described as above. As to conditions: [ATP] = 10 μM; for remaining activity at 0.2 µM: read-out: Residual Activity @ 200 nM, BTK. The format is biochemical. On the procedure:
as §1

The target in assay [7] is T6, HER2 (Homo sapiens, UniProt P04626).
T6 construct: purchased Reaction Biology Corporation
T6 sequence (P04626 23-1255): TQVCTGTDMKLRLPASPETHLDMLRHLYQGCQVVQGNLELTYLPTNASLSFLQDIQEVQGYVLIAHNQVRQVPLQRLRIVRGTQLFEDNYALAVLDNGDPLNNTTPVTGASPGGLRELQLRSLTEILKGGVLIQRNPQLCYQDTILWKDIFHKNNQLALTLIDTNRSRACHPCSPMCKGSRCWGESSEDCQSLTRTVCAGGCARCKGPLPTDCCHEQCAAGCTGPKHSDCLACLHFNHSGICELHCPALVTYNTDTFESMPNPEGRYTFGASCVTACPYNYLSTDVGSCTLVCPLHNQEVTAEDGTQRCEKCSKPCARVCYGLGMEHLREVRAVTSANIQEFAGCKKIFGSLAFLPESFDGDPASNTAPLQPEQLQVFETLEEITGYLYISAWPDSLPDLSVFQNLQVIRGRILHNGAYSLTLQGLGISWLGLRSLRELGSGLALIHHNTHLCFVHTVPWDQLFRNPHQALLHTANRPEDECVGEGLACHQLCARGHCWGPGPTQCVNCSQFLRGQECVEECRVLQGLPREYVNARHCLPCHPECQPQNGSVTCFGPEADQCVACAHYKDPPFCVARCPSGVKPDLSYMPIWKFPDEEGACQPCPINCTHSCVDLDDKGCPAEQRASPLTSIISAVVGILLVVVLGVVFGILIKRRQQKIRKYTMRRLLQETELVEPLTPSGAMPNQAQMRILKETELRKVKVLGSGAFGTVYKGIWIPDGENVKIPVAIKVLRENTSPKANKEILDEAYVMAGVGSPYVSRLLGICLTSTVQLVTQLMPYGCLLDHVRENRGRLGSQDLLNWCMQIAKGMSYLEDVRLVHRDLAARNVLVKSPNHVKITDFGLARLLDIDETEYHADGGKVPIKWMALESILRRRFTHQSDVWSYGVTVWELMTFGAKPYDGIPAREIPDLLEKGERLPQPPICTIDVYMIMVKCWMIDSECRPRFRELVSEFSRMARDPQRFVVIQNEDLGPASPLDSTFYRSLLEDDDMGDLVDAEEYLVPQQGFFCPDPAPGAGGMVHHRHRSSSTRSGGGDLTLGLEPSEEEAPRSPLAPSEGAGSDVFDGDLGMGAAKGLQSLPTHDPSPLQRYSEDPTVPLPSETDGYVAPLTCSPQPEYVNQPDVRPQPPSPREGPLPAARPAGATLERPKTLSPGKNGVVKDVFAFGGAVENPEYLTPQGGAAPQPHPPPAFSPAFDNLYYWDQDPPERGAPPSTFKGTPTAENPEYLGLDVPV
The description is as above. The format is biochemical. As to conditions: [ATP] = 10 μM; for remaining activity at 0.2 µM: 200 nM compound, duplicate mean, read-out: Residual Activity @ 200 nM, HER2. On the procedure: as §1

The target in assay [8] is T7, HER4 (Homo sapiens, UniProt Q15303).
T7 construct: purchased Reaction Biology Corporation
T7 sequence (Q15303 26-1308): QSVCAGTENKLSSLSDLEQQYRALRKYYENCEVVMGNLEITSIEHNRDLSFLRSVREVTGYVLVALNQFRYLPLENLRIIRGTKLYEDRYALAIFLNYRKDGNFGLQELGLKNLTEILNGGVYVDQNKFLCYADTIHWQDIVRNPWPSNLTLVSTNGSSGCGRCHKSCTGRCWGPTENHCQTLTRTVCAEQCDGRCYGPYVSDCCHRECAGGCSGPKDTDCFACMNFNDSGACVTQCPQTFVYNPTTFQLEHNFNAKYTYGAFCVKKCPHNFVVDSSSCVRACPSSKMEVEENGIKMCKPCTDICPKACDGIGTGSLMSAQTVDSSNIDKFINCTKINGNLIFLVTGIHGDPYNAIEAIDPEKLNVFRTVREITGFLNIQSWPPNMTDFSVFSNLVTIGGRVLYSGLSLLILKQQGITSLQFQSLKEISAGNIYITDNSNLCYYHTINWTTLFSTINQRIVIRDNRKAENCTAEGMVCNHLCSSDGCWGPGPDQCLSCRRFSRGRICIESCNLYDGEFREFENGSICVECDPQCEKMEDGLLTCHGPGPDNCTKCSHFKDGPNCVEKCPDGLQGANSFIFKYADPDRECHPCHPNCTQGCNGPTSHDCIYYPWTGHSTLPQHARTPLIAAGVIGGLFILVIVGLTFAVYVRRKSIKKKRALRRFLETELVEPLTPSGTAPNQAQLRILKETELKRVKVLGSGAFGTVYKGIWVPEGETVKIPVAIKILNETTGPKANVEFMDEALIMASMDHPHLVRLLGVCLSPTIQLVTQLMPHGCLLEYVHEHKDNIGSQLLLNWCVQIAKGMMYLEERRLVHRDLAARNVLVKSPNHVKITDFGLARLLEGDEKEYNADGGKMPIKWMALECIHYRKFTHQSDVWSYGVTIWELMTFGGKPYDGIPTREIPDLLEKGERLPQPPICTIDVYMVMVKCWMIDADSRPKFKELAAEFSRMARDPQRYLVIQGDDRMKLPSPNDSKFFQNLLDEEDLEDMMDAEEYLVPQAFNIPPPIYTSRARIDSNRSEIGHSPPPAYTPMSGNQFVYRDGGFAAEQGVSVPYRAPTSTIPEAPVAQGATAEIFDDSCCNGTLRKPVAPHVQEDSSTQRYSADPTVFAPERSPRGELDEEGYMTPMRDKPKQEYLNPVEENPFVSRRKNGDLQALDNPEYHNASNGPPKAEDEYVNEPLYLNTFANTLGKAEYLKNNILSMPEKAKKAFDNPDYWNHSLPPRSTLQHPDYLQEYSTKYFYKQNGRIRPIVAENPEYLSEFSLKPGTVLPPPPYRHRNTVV
The description is as above. The format is biochemical. As to conditions: [ATP] = 10 μM; for remaining activity at 0.2 µM: 200 nM compound, duplicate mean, read-out: Residual Activity @ 200 nM, HER4. On the procedure:
as §1

Assay [9] deals with T8, TEC (Homo sapiens, UniProt P42680).
T8 construct: purchased Reaction Biology Corporation
T8 sequence (P42680 1-631): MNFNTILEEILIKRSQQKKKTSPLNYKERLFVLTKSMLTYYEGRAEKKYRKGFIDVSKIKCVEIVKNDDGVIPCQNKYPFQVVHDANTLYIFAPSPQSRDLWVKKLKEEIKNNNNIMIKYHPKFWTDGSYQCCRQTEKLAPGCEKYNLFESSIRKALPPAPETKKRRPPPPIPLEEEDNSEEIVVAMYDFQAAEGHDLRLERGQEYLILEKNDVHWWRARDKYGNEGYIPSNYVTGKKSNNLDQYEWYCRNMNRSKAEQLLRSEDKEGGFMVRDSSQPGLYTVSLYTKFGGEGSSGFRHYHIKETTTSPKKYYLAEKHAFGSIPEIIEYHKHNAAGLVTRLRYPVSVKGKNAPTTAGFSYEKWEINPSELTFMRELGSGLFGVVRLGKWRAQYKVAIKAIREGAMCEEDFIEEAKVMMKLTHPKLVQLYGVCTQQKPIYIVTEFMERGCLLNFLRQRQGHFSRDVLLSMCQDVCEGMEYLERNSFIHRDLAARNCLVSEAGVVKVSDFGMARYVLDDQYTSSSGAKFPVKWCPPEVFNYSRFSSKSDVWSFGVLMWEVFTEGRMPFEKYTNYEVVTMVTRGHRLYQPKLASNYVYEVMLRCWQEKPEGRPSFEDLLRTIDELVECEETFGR
The description is as above. As to conditions: [ATP] = 10 μM; for remaining activity at 0.2 µM: 200 nM compound, duplicate mean, read-out: Residual Activity @ 200 nM, TEC. The format is biochemical. The method, then:
as §1

The mark [10] stands for this setting: 200 nM compound, duplicate mean.
[11] abbreviates: radiometric HotSpot, five-dose singlicate.

T5 sequence (Q06187 whole entry): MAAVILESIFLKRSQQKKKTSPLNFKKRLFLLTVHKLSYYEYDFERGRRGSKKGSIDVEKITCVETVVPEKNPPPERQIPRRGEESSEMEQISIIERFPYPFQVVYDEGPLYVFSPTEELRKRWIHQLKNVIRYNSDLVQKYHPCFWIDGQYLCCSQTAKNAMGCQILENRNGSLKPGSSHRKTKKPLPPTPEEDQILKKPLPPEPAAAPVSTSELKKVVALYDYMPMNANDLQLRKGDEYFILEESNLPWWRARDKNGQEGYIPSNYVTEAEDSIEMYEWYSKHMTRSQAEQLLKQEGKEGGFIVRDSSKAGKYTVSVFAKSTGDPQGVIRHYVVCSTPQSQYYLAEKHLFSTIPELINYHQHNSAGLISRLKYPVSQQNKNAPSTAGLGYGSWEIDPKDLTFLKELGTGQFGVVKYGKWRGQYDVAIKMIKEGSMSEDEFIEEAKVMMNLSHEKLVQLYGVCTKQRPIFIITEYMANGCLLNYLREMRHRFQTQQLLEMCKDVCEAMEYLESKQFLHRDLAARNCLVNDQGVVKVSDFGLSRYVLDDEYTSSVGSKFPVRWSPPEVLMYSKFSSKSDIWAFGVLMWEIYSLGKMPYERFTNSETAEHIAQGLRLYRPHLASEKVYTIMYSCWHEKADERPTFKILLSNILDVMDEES
T3 sequence (P52333 822-1111 limits assumed): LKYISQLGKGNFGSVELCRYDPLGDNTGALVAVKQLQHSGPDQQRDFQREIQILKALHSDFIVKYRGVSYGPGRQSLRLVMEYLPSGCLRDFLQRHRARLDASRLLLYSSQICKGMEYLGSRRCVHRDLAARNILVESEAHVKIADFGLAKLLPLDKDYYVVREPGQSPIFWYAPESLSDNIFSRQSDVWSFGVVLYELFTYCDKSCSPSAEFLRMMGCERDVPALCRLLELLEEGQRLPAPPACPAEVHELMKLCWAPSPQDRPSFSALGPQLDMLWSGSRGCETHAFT

`C=CC(=O)Nc1cccc(-c2c[nH]c3ncc(C(=O)NC4CCCC4)cc23)c1` [Compound 11a, 3-(3-acrylamidophenyl)-N-cyclopentyl-1H-pyrrolo[2,3-b]pyridine-5-carboxamide] displayed an IC50 in assay [1] of 539 nM. Besides, in assay [2], the ΔTm at 10 µM was 5.31 ± 0.18 °C. Also, the ΔTm at 10 µM in [3] is 9.12 ± 0.02 °C. Further, in [4], the “BMX covalent adduct fraction, 30 min” value amounted to 60%; the “native (unmodified) BMX fraction, 30 min” value is recorded as 40%; the “BMX covalent adduct fraction, 60 min” value turned out to be 67%; the “native (unmodified) BMX fraction, 60 min” value worked out at 33%. In addition, in assay [4], the “BMX covalent adduct fraction, 120 min” value is given as 89%; the “native (unmodified) BMX fraction, 120 min” value was 11%; the “BMX covalent adduct fraction, 240 min” value was found to be 97%; the “native (unmodified) BMX fraction, 240 min” value came to 3%. For the same compound, the “exposure required to approach full target modification” value in assay [4] (1.5-fold molar excess) was 240 min.
Regarding `C=CC(=O)Nc1cccc(-c2c[nH]c3ncc(C(N)=O)cc23)c1` [Compound 10a, 3-(3-acrylamidophenyl)-1H-pyrrolo[2,3-b]pyridine-5-carboxamide], the remaining activity at 0.2 µM in [5] amounted to 82.4%; in assay [1] it was 1.6%; in assay [6] (setting [10]) it was 18.9%; in assay [7], 97%; in assay [8] it was 66.6%; in [9], 42.1%. In assay [1], this compound registered an IC50 of 29 nM. The ΔTm at 10 µM in [2] turned out to be 10.49 ± 0.09 °C; in assay [3], 21.07 ± 0.03 °C. Moreover, in assay [4], the “BMX covalent adduct fraction, 30 min” value is reported as 99%. The “BMX covalent adduct fraction, 60 min” value in assay [4] is 100%. Also, the “BMX covalent adduct fraction, 120 min” value in [4] is 100%. Besides, the “BMX covalent adduct fraction, 240 min” value in assay [4] came out at 100%. Also, the “covalent labeling of BMX (in words)” value in assay [4] (1.5-fold molar excess) was “complete labeling”.
As to `C=CC(=O)Nc1cccc(-c2c[nH]c3ncccc23)c1` [Compound 9a, N-(3-(1H-pyrrolo[2,3-b]pyridin-3-yl)phenyl)acrylamide], the remaining activity at 0.2 µM in assay [5] turned out to be 95.8%; in assay [1] it was 2.7%; in assay [6] (setting [10]) it was 18.2%; in assay [7] it was 95%; in assay [8] it was 66.1%; in assay [9], 37.1%. The “BMX covalent adduct fraction, 30 min” value in assay [4] is 100%. Besides, the “BMX covalent adduct fraction, 60 min” value in assay [4] amounted to 100%. In addition, the “BMX covalent adduct fraction, 120 min” value in assay [4] was found to be 100%. For the same compound, in assay [4], the “BMX covalent adduct fraction, 240 min” value worked out at 100%. Moreover, in assay [4] (1.5-fold molar excess), the “covalent labeling of BMX (in words)” value is given as “complete labeling”.
As for `C=CC(=O)Nc1cccc(-c2c[nH]c3ncc(NC(=O)c4cccs4)cc23)c1` [Compound 12c, N-(3-(3-acrylamidophenyl)-1H-pyrrolo[2,3-b]pyridin-5-yl)thiophene-2-carboxamide], the remaining activity at 0.2 µM is 8.6% in [5]; 0.8% in assay [6] (setting [10]); 41.1% in assay [7]; 4.7% in [8]; 17.2% in [9]. For the same compound, the IC50 in [5] (setting [11]) is 30 nM; in [6] (setting [11]), less than 1 nM; in assay [7] (setting [11]), 118 nM; in assay [8] (setting [11]), 8.5 nM; in assay [9] (setting [11]) it was 13 nM. The ΔTm at 10 µM in assay [2] worked out at 11.52 ± 0.08 °C; in assay [3], 7.36 ± 0.44 °C. Further, in [4], the “BMX covalent adduct fraction, 30 min” value is 100%. Also, the “BMX covalent adduct fraction, 60 min” value in [4] was 100%. Also, the “BMX covalent adduct fraction, 120 min” value in assay [4] is given as 100%. Moreover, in [4], the “BMX covalent adduct fraction, 240 min” value worked out at 100%. For the same compound, in [4] (1.5-fold molar excess), the “covalent labeling of BMX (in words)” value is “complete labeling”.
Turning to `CCC(=O)Nc1cccc(-c2c[nH]c3ncc(NC(=O)C4CCCC4)cc23)c1` [Compound 12b, N-(3-(3-propionamidophenyl)-1H-pyrrolo[2,3-b]pyridin-5-yl)cyclopentanecarboxamide], the remaining activity at 0.2 µM is 95.1% in [5]; 70% in assay [6] (setting [10]); greater than 100% in assay [7]; 95.4% in assay [8]; 99.2% in assay [9]. Besides, the midpoint of inhibition in assay [1], the IC50, lay at 582 nM. For the same compound, in assay [6] (setting [10]), the “Residual Activity @ 200 nM, BTK” value is listed as 69.7%. Further, the “native (unmodified) BMX fraction, 30 min” value in assay [4] amounted to 100%. For the same compound, the “native (unmodified) BMX fraction, 60 min” value in assay [4] is 100%. The “native (unmodified) BMX fraction, 120 min” value in assay [4] was 100%. In addition, the “native (unmodified) BMX fraction, 240 min” value in [4] came to 100%. In assay [4] (1.5-fold molar excess), the “covalent labeling of BMX (in words)” value is given as “no modification was detectable”.
